Measurements from US8754220B2, “Quinolizidinone carboxamide M1 receptor positive allosteric modulators” (Merck Sharp & Dohme Corp., priority 2009, dated 2014).

Each molecule was assayed against T1, acetylcholine muscarinic M1 receptor (CHOnfat/hM1 cells) (Homo sapiens, UniProt P11229) (assay: FLIPR intracellular calcium assay for M1 positive allosteric modulator activity (acetylcholine EC20)). Details: not given.
T1 construct: expressed in transfected cells; host or cells: CHOnfat (CHO cells; selected with Geneticin)
T1 sequence (P11229 1-460): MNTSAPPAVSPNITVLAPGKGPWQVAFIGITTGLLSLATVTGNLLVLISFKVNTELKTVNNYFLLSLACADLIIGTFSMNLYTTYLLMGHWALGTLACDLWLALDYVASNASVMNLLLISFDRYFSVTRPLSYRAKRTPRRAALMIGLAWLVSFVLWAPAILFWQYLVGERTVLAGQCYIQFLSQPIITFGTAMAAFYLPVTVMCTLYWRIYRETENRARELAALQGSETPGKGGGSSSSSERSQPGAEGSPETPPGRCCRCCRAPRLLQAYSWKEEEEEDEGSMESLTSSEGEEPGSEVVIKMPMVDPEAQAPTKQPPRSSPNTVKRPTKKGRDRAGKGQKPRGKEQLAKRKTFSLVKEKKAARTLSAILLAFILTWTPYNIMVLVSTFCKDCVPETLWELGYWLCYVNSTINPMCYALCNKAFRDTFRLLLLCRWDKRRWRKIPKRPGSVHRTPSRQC
Assay type: cell-based
Description: The assay studies the effect of one or several concentrations of test compounds on basal or acetylcholine-stimulated Ca^2+ levels using FLIPR.
Compounds are prepared and subjected to a preincubation period of 4 min. Thereafter, a single EC20 concentration of acetylcholine is added to each well (3 nM final). The intracellular Ca^2+ level of each sample is measured and compared to an acetylcholine control to determine any modulatory activity.
Cells: CHOnfat/hM1, hM2, hM3 or hM4 cells are plated 24 hr before the assay at a density of 18,000 cells/well (100 μL) in a 384 well plate. CHOnfat/hM1 and CHOnfat/hM3 Growth Medium: 90% DMEM (Hi Glucose); 10% HI FBS; 2 mM L-glutamine; 0.1 mM NEAA; Pen-Strep; and 1 mg/ml Geneticin, are added. For M2Gqi5CHOnfat and M4Gqi5CHOnfat cells, an additional 600 μg/ml hygromycin is added.
Equipment: 384 well plate, 120 μL addition plate; 96-well Whatman 2 ml Uniplate Incubator, 37° C., 5% CO2; Skatron EMBLA-384 Plate Washer; Multimek Pipetting System; Genesis Freedom 200 System; Mosquito System; Temo Nanoliter Pipetting System; and FLIPR^384 Fluorometric Imaging Plate Reader System are used.
Buffers. Assay Buffer: Hanks Balanced Salt Solution, with 20 mM Hepes, 2.5 mM Probenecid (Sigma P-8761) first dissolved in 1 N NaOH, 1% Bovine Serum Albumin (Sigma A-9647). Dye Loading Buffer: Assay Buffer plus 1% Fetal Bovine Serum and Fluo-4AM/Pluronic Acid Mixture. 2 mM Fluo-4AM ester stock in DMSO (Molecular Probes F-14202) Concentration of 2 μM in buffer for a final concentration of 1 μM in Assay. 20% Pluronic Acid Solution stock, with concentration of 0.04% in Buffer, 0.02% in Assay.
65 μL of 2 mM Fluo-4AM are mixed with 130 μL of 20% Pluronic Acid. The resulting solution and 650 μL FBS is added to the assay buffer for a total volume of 65 mL. Positive Controls: 4-Br-A23187: 10 mM in DMSO; final concentration 10 μM. Acetylcholine: 10 mM in water, working stock at both 20 μM and 30 μM in assay buffer, final concentration of 10 μM. This is used to check the maximum stimulation of the CHOK1/hM1 cells. 20 μM (2×) acetylcholine is added in the preincubation part of the assay, and the 30 μM (3×) stock is added in the second part. (EC20) Acetylcholine: 10 mM in water, working stock of 9 nM (3×), and final concentration in assay is 3 nM. This is used after the preincubation with test compounds. Addition of the EC20 Acetylcholine to each well with a test compound will ascertain any modulator activity. 24 wells contain 3 nM Acetylcholine alone as a control.
Screening Plate: Compounds are titrated in 96-well plates (columns 2-11), 100% DMSO, started at a concentration of 15 mM (150× stock concentration), and 3-fold serial dilutions using Genesis Freedom200 System. Four 96-well plates are combined into a 384-well plate using Mosquito Nanoliter Pipetting System by transferring 1 μl of serial diluted compounds to each well, and 1 mM acetylcholine (100× stock concentration) were added as a control. Using Temo, 49 μl assay buffer is added to each well of the 384-well plate right before assay.
In a 96-well Whatman 2 ml Uniplate, 9 nM Acetylcholine (3×) is pipetted into wells corresponding to the screening compounds, and into control wells. The 30 μM acetylcholine control (3×) is added into control wells, and the 3× agonist plate is transferred into a 384 well plate.
Cells are washed three times with 100 μL of buffer, leaving 30 μL of buffer in each well. Using Multimek, 30 μL of Dye Loading Buffer is added into each well and incubated at 37° C., 5% CO2 for up to one hr.
After 60 min, the cells are washed three times with 100 μL of buffer, leaving 30 μL of buffer in each well. The cell plate, screening plate, and agonist addition plates are placed on the platform in the FLIPR and the door closed. A signal test to check background fluorescence and basal fluorescence signal is performed. Laser intensity is adjusted if necessary. […]

| SMILES | EC50 [nM] |
| --- | --- |
| N#CC1(c2ccccn2)CCN(Cc2cc(C(=O)N[C@H]3CCOC[C@@H]3O)c(=O)n3ccccc23)CC1 (racemic) [Example 7, rac-1-[(4-Cyano-4-pyridin-2-ylpiperidin-1yl)methyl]-N-[(3R,4S)-3-hydroxytetrahydro-2H-pyran-4-yl]-4-oxo-4H-quinolizine-3-carboxamide] | 25 |
| C[C@]1(O)CCCC[C@@H]1NC(=O)c1cc(CN2CCC(C#N)(c3ccccn3)CC2)c2ccccn2c1=O (racemic) [Example 14, rac-1-[(4-Cyano-4-pyridin-2-ylpiperidin-1-yl)methyl]-N-[(1R,2R)-2-hydroxy-2-methylcyclohexyl]-4-oxo-4H-quinolizine-3-carboxamide] | 93 |
| N#CC1(c2ccccc2)CCN(Cc2cc(C(=O)N[C@@H]3CCOC[C@H]3O)c(=O)n3ccccc23)CC1 [Example 9, 1-[(4-Cyano-4-phenylpiperidin-1-yl)methyl]-N-[(3S,4R)-3-hydroxytetrahydro-2H-pyran-4-yl]-4-oxo-4H-quinolizine-3-carboxamide] | 530 |
| N#CC1(c2ncc(Br)cc2Br)CCN(Cc2cc(C(=O)N[C@H]3CCOC[C@@H]3O)c(=O)n3ccccc23)CC1 [Example 10, 1-{[4-Cyano-4-(3,5-dibromopyridin-2-yl)piperidin-1-yl]methyl}-N-[(3R,4S)-3-hydroxytetrahydro-2H-pyran-4-yl]-4-oxo-4H-quinolizine-3-carboxamide] | 14 |
| N#CC1(c2ccccc2)CCN(Cc2cc(C(=O)N[C@H]3COCC[C@@H]3O)c(=O)n3ccccc23)CC1 [Example 11, 1-[(4-Cyano-4-phenylpiperidin-1-yl)methyl]-N-[(3S,4S)-4-hydroxytetrahydro-2H-pyran-3-yl]-4-oxo-4H-quinolizine-3-carboxamide] | 560 |
| N#CC1(c2ccccc2Br)CCN(Cc2cc(C(=O)N[C@H]3CCCC[C@@H]3O)c(=O)n3ccccc23)CC1 [Example 12] | 24 |

Same assay, conditions: CHOnfat/hM1 cells, 4 min preincubation, then EC20 acetylcholine (3 nM final), FLIPR Ca2+; read-out: IP Value (inflection point)

| SMILES | EC50 [nM] |
| --- | --- |
| N#CC1(c2ccccn2)CCN(Cc2cc(C(=O)N[C@H]3COCC[C@@H]3O)c(=O)n3ccccc23)CC1 (racemic) [Example 8, rac-1-[(4-Cyano-4-pyridin-2-ylpiperidin-1yl)methyl]-N-[(3R,4R)-4-hydroxytetrahydro-2H-pyran-3-yl]-4-oxo-4H-quinolizine-3-carboxamide] | 220 |
| N#CC1(c2ccccn2)CCN(Cc2cc(C(=O)N[C@H]3CCCC[C@@H]3Br)c(=O)n3ccccc23)CC1 (racemic) [Example 13, rac-N-[(1R,2R)-2-Bromocyclohexyl)-1-[(4-cyano-4-pyridin-2-ylpiperidin-1-yl)methyl]-4-oxo-4H-quinolizine-3-carboxamide] | 480 |
| CS[C@H]1CCCC[C@@H]1NC(=O)c1cc(CN2CCC(C#N)(c3ccccn3)CC2)c2ccccn2c1=O (racemic) [Example 16, rac-1-[(4-Cyano-4-pyridin-2-ylpiperidin-1-yl)methyl]-N-[(1R,2R)-2-(methylthio)cyclohexyl]-4-oxo-4H-quinolizine-3-carboxamide] | 180 |
| C[S@@+]([O-])[C@H]1CCCC[C@@H]1NC(=O)c1cc(CN2CCC(C#N)(c3ccccn3)CC2)c2ccccn2c1=O (racemic) [Example 17, rac-1-[(4-Cyano-4-pyridin-2-ylpiperidin-1-yl)methyl]-N-{(1R,2R)-2-[(S)-methylsulfinyl]cyclohexyl}-4-oxo-4H-quinolizine-3-carboxamide] | 2600 |
| CS(=O)(=O)[C@H]1CCCC[C@@H]1NC(=O)c1cc(CN2CCC(C#N)(c3ccccn3)CC2)c2ccccn2c1=O (racemic) [Example 18, rac-1-[(4-Cyano-4-pyridin-2-ylpiperidin-1-yl)methyl]-N-[(1R,2R)-2-(methylsulfonyl)cyclohexyl]-4-oxo-4H-quinolizine-3-carboxamide] | 800 |
| C[C@H]1COCC[C@@H]1NC(=O)c1cc(CN2CCC(C#N)(c3ccccn3)CC2)c2ccccn2c1=O (racemic) [Example 21, rac-1-[(4-Cyano-4-pyridin-2-ylpiperidin-1-yl)methyl]-N-[(3R,4S)-3-methyltetrahydro-2H-pyran-4-yl]-4-oxo-4H-quinolizine-3-carboxamide] | 380 |
| N#CC1(c2ccccn2)CCN(Cc2cc(C(=O)NC3CCOCC3)c(=O)n3ccccc23)CC1 [Example 1, 1-[(4-Cyano-4-pyridin-2-ylpiperidin-1-yl)methyl]-4-oxo-4H—N-(tetrahydro-2H-pyran-4-yl)-4H-quinolizine-3-carboxamide] | 340 |
| O=C(N[C@H]1CCCC[C@@H]1O)c1cc(Cc2ccc(Br)cn2)c2ccccn2c1=O [Example 2, 1-[(5-Bromopyridin-2-yl)methyl]-N-[(1S,2S)-2-hydroxycyclohexyl]-4-oxo-4H-quinolizine-3-carboxamide] | 105 |
| Cn1cc(-c2ccc(Cc3cc(C(=O)N[C@H]4CCCC[C@@H]4O)c(=O)n4ccccc34)nc2)cn1 [Example 3, N-[(1S,2S)-2-Hydroxycyclohexyl]-{-[5-(1-methyl-1H-pyrazol-4-yl)pyridine-2-yl]methyl}-4-oxo-4H-quinolizine-3-carboxamide] | 15 |
| O=C(N[C@H]1CCCC[C@@H]1O)c1cc(Cc2ccc(-n3cccn3)cn2)c2ccccn2c1=O [Example 4, N-[(1S,2S)-2-Hydroxycyclohexyl]-4-oxo-1-{[5-(1H-pyrazol-1-yl)pyridine-2-yl]methyl}-4H-quinolizine-3-carboxamide] | 444 |
| O=C(N[C@H]1CCCC[C@@H]1O)c1cc(CN2CCN(c3ccc(C(F)F)nc3)CC2)c2ccccn2c1=O [Example 5, 1-({4-[6-(Difluoromethyl)pyridine-3-yl]piperazin-1-yl}methyl)-N-[(1S,2S)-2-hydroxycyclohexyl]-4-oxo-4H-quinolizine-3-carboxamide] | 210 |
| Cn1cc(N2CCN(Cc3cc(C(=O)N[C@H]4CCCC[C@@H]4O)c(=O)n4ccccc34)CC2=O)cn1 [Example 6, N-[(1S,2S)-2-Hydroxycyclohexyl]-1-{[4-(1-methyl-1H-pyrazol-4-yl)-3-oxopiperazin-1-yl]methyl}-4-oxo-4H-quinolizine-3-carboxylate] | 170 |
| N#CC1(c2ccccn2)CCN(Cc2cc(C(=O)N[C@@H]3CCCCC3=O)c(=O)n3ccccc23)CC1 [Example 15, 1-[(4-Cyano-4-pyridin-2-ylpiperidin-1-yl)methyl]-4-oxo-N-[(1R)-2-oxocyclohexyl]-4H-quinolizine-3-carboxamide] | 660 |
| N#CC1(c2ccccn2)CCN(Cc2cc(C(=O)NC3CCCNC3)c(=O)n3ccccc23)CC1 (centres unmarked) [Example 19, 1-[(4-Cyano-4-pyridin-2-ylpiperidin-1-yl)methyl]-4-oxo-N-piperidin-3-yl-4H-quinolizine-3-carboxamide] | 1800 |
